Experimental data published in BindingDB's records for doi:10.1021/acsmedchemlett.8b00379 (Bristol-Myers Squibb Research and Development, 2018).

Key:
[1] = Inhibition of HCV genotype 2a JFH1 NS5B RNA dependent RNA polymerase infected in human HuH7 replicon cells after 3 days by luciferase reporter gene assay
[2] = Inhibition of HCV genotype 1b NS5B RNA dependent RNA polymerase C316N mutant infected in human HuH7 replicon cells after 3 days by luciferase reporter gene assay
[3] = Inhibition of HCV genotype 1a NS5B RNA dependent RNA polymerase infected in human HuH7 replicon cells after 3 days by luciferase reporter gene assay
[4] = Inhibition of HCV genotype 1b NS5B RNA dependent RNA polymerase infected in human HuH7 replicon cells after 3 days by luciferase reporter gene assay

SMILES | EC50 [1] [nM] | EC50 [2] [nM] | EC50 [3] [nM] | EC50 [4] [nM]
CCN(c1cc2oc(-c3ccc(F)cc3)c(C(=O)NC)c2cc1-c1cc(C)c(OC)c(C(=O)NC2(c3ncccn3)CC2)c1)S(C)(=O)=O | 16 |  |  | 
CCN(C(C)=O)c1cc2oc(-c3ccc(F)cc3)c(C(=O)NC)c2cc1-c1ccc(OC)c(C(=O)NC2(c3ncccn3)CC2)c1 | 35 |  |  | 
CNC(=O)c1c(-c2ccc(F)cc2)oc2ccc(-c3cccc(C(=O)NC4(c5ccccn5)CC4)c3)cc12 | 515 | 75 | 36 | 3.8
CCNc1cc2oc(-c3ccc(F)cc3)c(C(=O)NC)c2cc1-c1ccc(OC)c(C(=O)NC2(c3ncccn3)CC2)c1 | 12 | 3.6 | 2.3 | 1.2
CCN(c1cc2oc(-c3ccc(F)cc3)c(C(=O)NC)c2cc1-c1cc(F)c(OC)c(C(=O)NC2(c3ncccn3)CC2)c1)S(C)(=O)=O | 8.8 |  |  | 
CCN(c1cc2oc(-c3ccc(F)cc3)c(C(=O)NC)c2cc1-c1ccc(OC)c(C(=O)NC2(c3ncccn3)CC2)c1)S(C)(=O)=O | 13 |  |  | 
CNC(=O)c1c(-c2ccc(F)cc2)oc2cc(N(CCO)S(C)(=O)=O)c(-c3cccc(C(=O)NC4(c5ccccn5)CC4)c3)cc12 | 22 | 385 | 35 | 52
CCN(C(=O)C(F)(F)F)c1cc2oc(-c3ccc(F)cc3)c(C(=O)NC)c2cc1-c1ccc(OC)c(C(=O)NC2(c3ncccn3)CC2)c1 | 20 |  |  | 
CNC(=O)c1c(-c2ccc(F)cc2)oc2cc(N(CCO)S(C)(=O)=O)c(-c3cccc(C(=O)NC4(c5ccccc5)CC4)c3)cc12 | 8.6 | 64 | 5.7 | 6.2
CCN(C(=O)OC)c1cc2oc(-c3ccc(F)cc3)c(C(=O)NC)c2cc1-c1ccc(OC)c(C(=O)NC2(c3ncccn3)CC2)c1 | 15 |  |  | 
CCN(c1cc2oc(-c3ccc(F)cc3)c(C(=O)NC)c2cc1-c1cc(Cl)c(OC)c(C(=O)NC2(c3ncccn3)CC2)c1)S(C)(=O)=O | 6.6 |  |  | 
CCN(c1cc2oc(-c3ccc(F)cc3)c(C(=O)NC)c2cc1-c1cc(F)c(F)c(C(=O)NC2(c3ncccn3)CC2)c1)S(C)(=O)=O | 9 |  |  | 
CCN(C(=O)N(C)C)c1cc2oc(-c3ccc(F)cc3)c(C(=O)NC)c2cc1-c1ccc(OC)c(C(=O)NC2(c3ncccn3)CC2)c1 | 165 |  |  | 
CCN(c1cc2oc(-c3ccc(F)cc3)c(C(=O)NC)c2cc1-c1cccc(C(=O)NC2(c3ncccn3)CC2)c1)S(C)(=O)=O | 5.4 | 44 | 7.7 | 8.8
